Assay results: patent US11453647B2, “Benzimidazole derivatives as adenosine receptor antagonists” (Merck Patent GmbH, priority 2017, dated 2022)

Tests used:
Format in all cases: cell-based
human A1 receptor = molecular target: T1, human A1 receptor (Homo sapiens, UniProt P30542); assay: functional cAMP (HTRF) assay, recombinant CHO cells expressing human A1 receptor, forskolin, agonist CPA
T1 construct: expressed in transfected cells; host or cells: CHO
T1 sequence (P30542 1-326): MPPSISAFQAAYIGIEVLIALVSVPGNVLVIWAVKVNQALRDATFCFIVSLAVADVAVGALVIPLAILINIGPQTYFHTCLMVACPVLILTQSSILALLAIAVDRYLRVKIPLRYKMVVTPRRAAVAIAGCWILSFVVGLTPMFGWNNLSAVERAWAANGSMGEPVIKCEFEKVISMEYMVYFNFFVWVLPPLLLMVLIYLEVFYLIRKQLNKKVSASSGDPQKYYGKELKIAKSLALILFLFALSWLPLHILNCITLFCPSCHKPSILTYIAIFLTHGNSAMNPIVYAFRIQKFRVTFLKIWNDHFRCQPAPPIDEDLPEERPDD
Method: The functional activities of human A2A, A2B, A1 and A3 receptors were determined by quantification of cAMP, being the second messenger for adenosine receptors.
For human A1 and A3 receptors, recombinant CHO cells, expressing either A1 or A3-receptor, were used. As both receptors couple to Gi proteins, the assay protocol was adapted:
Cells were seeded into 384-well plates, forskolin, test compounds and agonists (CPA for A1- and IB-MECA for A3-receptor) were added. After 30 min incubation, HTRF reagents (cAMP dynamic 2, Cis Bio) were added and the cellular cAMP levels were determined using the ENVISION (Perkin Elmer) plate reader. Obtained raw data were normalized against the inhibitor control and the neural control (DMSO) and the normalized data were fitted using GeneData software.

human A3 receptor = molecular target: T2, human A3 receptor (Homo sapiens, UniProt P0DMS8); assay: functional cAMP (HTRF) assay, recombinant CHO cells expressing human A3 receptor, forskolin, agonist IB-MECA
T2 construct: expressed in transfected cells; host or cells: CHO
T2 sequence (P0DMS8 1-318): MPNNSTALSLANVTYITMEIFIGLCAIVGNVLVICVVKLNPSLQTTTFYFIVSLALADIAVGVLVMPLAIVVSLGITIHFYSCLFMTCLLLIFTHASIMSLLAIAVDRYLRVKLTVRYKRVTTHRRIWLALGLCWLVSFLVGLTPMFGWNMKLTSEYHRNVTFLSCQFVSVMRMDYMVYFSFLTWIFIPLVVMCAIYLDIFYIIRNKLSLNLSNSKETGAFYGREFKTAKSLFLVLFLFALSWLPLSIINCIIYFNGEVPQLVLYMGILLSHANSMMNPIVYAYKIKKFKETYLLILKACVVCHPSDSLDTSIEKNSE
Method in brief: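 Recombinant CHO cells expressing A1 or A3 receptor (Gi-coupled) were stimulated with forskolin together with test compound and agonist (CPA for A1, IB-MECA for A3), incubated 30 min, then cellular cAMP was read by HTRF. Data were normalized to inhibitor control and DMSO neutral control, then curve-fitted.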

A2B receptors = molecular target: T3, A2B receptors (Homo sapiens, UniProt P29275); assay: functional cAMP (HTRF) assay, recombinant HEK293 cells expressing human A2B receptor, agonist NECA; set-up: expressed in transfected cells; host or cells: HEK293
T3 sequence (P29275 1-332): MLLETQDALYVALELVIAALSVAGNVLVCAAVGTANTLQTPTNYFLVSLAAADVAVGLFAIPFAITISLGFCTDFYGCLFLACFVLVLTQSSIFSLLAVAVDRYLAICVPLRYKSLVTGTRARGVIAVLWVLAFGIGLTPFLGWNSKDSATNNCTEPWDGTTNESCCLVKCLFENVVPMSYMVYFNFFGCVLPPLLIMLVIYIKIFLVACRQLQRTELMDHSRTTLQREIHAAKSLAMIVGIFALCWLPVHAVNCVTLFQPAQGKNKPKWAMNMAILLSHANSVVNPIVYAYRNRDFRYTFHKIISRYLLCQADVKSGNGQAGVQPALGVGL

human A2A receptor = molecular target: T4, human A2A receptor (Homo sapiens, UniProt P29274); assay: functional cAMP (HTRF) assay, recombinant HEK293 cells expressing human A2A receptor, agonist NECA
T4 construct: expressed in transfected cells; host or cells: HEK293
T4 sequence (P29274 whole entry): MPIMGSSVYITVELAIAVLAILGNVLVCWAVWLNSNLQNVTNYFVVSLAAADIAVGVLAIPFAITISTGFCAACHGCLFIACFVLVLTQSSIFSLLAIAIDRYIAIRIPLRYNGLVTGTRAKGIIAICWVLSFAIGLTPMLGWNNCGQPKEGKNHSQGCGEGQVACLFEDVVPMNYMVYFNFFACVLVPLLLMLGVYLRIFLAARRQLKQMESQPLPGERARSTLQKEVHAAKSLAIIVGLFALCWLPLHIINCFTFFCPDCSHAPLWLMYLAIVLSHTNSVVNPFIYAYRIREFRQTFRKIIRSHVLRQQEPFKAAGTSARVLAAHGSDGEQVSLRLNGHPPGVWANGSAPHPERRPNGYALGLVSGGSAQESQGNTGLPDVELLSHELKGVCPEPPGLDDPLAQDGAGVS

Row | IC50 (human A1 receptor) | IC50 (human A3 receptor) | IC50 (A2B receptors) | IC50 (human A2A receptor) | SMILES
1 | < 1000 nM | < 1000 nM | < 100 nM | < 100 nM | COc1ccc(-c2cnn(Cc3cccnc3)c2)c2[nH]c(NC(=O)N3CCC(C)(O)CC3)nc12 [compound 237, 4-hydroxy-N-(4-methoxy-7-{1-[(pyridin-3-yl)methyl]-1H-pyrazol-4-yl}-1H-1,3-benzodiazol-2-yl)-4-methylpiperidine-1-carboxamide]
2 | > 1000 nM | > 1000 nM | < 100 nM | < 10 nM | COCCn1cc(C(=O)Nc2nc3c(C4CCOCC4)ccc(OC)c3[nH]2)cn1 [compound 225, N-[7-methoxy-4-(oxan-4-yl)-1H-1,3-benzodiazol-2-yl]-1-(2-methoxyethyl)-1H-pyrazole-4-carboxamide]
3 | > 1000 nM | < 1000 nM | < 100 nM | < 100 nM | COc1ccc(-c2ccccc2)c2nc(NC(=O)c3cn(C)nc3C)[nH]c12 [compound 269, N-(7-methoxy-4-phenyl-1H-1,3-benzodiazol-2-yl)-1,3-dimethyl-1H-pyrazole-4-carboxamide]
4 | > 1000 nM | < 1000 nM | < 100 nM | < 100 nM | COCCn1cc(C(=O)Nc2nc3c(-c4ccnc5[nH]ccc45)ccc(OC)c3[nH]2)cn1 [compound 278, N-(7-methoxy-4-{1H-pyrrolo[2,3-b]pyridin-4-yl}-1H-1,3-benzodiazol-2-yl)-1-(2-methoxyethyl)-1H-pyrazole-4-carboxamide]
5 | > 1000 nM | < 1000 nM | < 100 nM | < 10 nM | COc1cc(F)c(C2=CCOCC2)c2nc(NC(=O)c3cnn(C)c3)[nH]c12 [compound 264, N-[4-(3,6-dihydro-2H-pyran-4-yl)-5-fluoro-7-methoxy-1H-1,3-benzodiazol-2-yl]-1-methyl-1H-pyrazole-4-carboxamide]
6 | < 1000 nM | > 1000 nM | < 10 nM | < 10 nM | COc1ccc(-c2cccnc2)c2nc(NC(=O)c3ccc(C(=O)N(C)C)cc3)[nH]c12 [compound 259, N4-[7-methoxy-4-(pyridin-3-yl)-1H-1,3-benzodiazol-2-yl]-N1,N1-dimethylbenzene-1,4-dicarboxamide]
7 | < 1000 nM | < 1000 nM | < 100 nM | < 100 nM | COCCn1cc(C(=O)Nc2nc3c(-c4cccc5[nH]ncc45)ccc(OC)c3[nH]2)cn1 [compound 279, N-[4-(1H-indazol-4-yl)-7-methoxy-1H-1,3-benzodiazol-2-yl]-1-(2-methoxyethyl)-1H-pyrazole-4-carboxamide]
8 | > 1000 nM | < 1000 nM | < 10 nM | < 10 nM | COc1ccc(C2=CCOC2)c2nc(NC(=O)c3ccc(C(=O)N(C)C)cc3)[nH]c12 [compound 261, N4-[4-(2,5-dihydrofuran-3-yl)-7-methoxy-1H-1,3-benzodiazol-2-yl]-N1,N1-dimethylbenzene-1,4-dicarboxamide]
9 | > 1000 nM | < 1000 nM | < 1000 nM | < 100 nM | COc1ccc(C2=CCOCC2)c2nc(NC(=O)C3CC3)[nH]c12 [compound 314, N-[4-(3,6-dihydro-2H-pyran-4-yl)-7-methoxy-1H-1,3-benzodiazol-2-yl]cyclopropanecarboxamide]
10 | > 1000 nM | > 1000 nM | < 100 nM | < 100 nM | COc1ccc(-c2ccccc2)c2nc(NC(=O)c3ccc(C(=O)N(C)C)cn3)[nH]c12 [compound 284, N2-(7-methoxy-4-phenyl-1H-1,3-benzodiazol-2-yl)-N5,N5-dimethylpyridine-2,5-dicarboxamide]

Continued, molecule first:

Row | SMILES | IC50 (human A1 receptor) | IC50 (human A3 receptor) | IC50 (A2B receptors) | IC50 (human A2A receptor)
11 | COc1ccc(-c2cnn(C)c2)c2nc(NC(=O)c3ccnc(N4CCOCC4)c3)[nH]c12 [compound 26, N-[7-Methoxy-4-(1-methyl-1H-pyrazol-4-yl)-1H-benzoimidazol-2-yl]-2-morpholin-4-yl-isonicotinamide] | > 1000 nM | < 1000 nM | > 1000 nM | < 10 nM
12 | COc1ccc(C2CCOCC2)c2nc(NC(=O)c3ccnc(N4CC[C@@]5(CCOC5)C4)c3)[nH]c12 [compound 153, N-[7-methoxy-4-(oxan-4-yl)-1H-1,3-benzodiazol-2-yl]-2-[(5R)-2-oxa-7-azaspiro[4.4]nonan-7-yl]pyridine-4-carboxamide] | > 1000 nM | > 1000 nM | > 1000 nM | < 10 nM
13 | COc1ccc(-c2cnn(C)c2)c2nc(NC(=O)c3ccc4ocnc4c3)[nH]c12 [compound 98, N-[7-methoxy-4-(1-methyl-1H-pyrazol-4-yl)-1H-1,3-benzodiazol-2-yl]-1,3-benzoxazole-5-carboxamide] | > 1000 nM | < 1000 nM | < 1000 nM | < 100 nM
14 | COc1ccc(C2CCOCC2)c2nc(NC(=O)c3cnn(C)c3)[nH]c12 [compound 224, N-[7-methoxy-4-(oxan-4-yl)-1H-1,3-benzodiazol-2-yl]-1-methyl-1H-pyrazole-4-carboxamide] | > 1000 nM | < 1000 nM | < 100 nM | < 10 nM
15 | COc1ccc(N2CCOCC2)c2nc(NC(=O)c3cnn(C(CO)CCl)c3)[nH]c12 (centres unmarked) [compound 86, 1-(1-chloro-3-hydroxypropan-2-yl)-N-[7-methoxy-4-(morpholin-4-yl)-1H-1,3-benzodiazol-2-yl]-1H-pyrazole-4-carboxamide] | > 1000 nM | > 1000 nM | > 1000 nM | < 10 nM
16 | COc1ccc(-c2ccccc2)c2nc(NC(=O)c3ccc(N4CCOCC4)nc3)[nH]c12 [compound 8, N-(7-Methoxy-4-phenyl-1H-benzoimidazol-2-yl)-6-morpholin-4-yl-nicotinamide] | > 1000 nM | < 1000 nM | > 1000 nM | < 10 nM
17 | COc1ccc(-c2cnn(C)c2)c2nc(NC(=O)c3ccc(CN4CCOCC4)cc3)[nH]c12 [compound 152, N-[7-methoxy-4-(1-methyl-1H-pyrazol-4-yl)-1H-1,3-benzodiazol-2-yl]-4-[(morpholin-4-yl)methyl]benzamide] | > 1000 nM | < 1000 nM | < 1000 nM | < 100 nM
18 | COc1ccc(N2CCOCC2)c2nc(NC(=O)c3ccc(Cn4ccnc4)cc3)[nH]c12 [compound 76, 4-[(1H-imidazol-1-yl)methyl]-N-[7-methoxy-4-(morpholin-4-yl)-1H-1,3-benzodiazol-2-yl]benzamide] | > 1000 nM | > 1000 nM | < 1000 nM | < 10 nM
19 | COc1ccc(-c2cnn(C)c2)c2[nH]c(NC(=O)c3cnn(C)c3)nc12 [compound 160, N-[7-methoxy-4-(1-methyl-1H-pyrazol-4-yl)-1H-1,3-benzodiazol-2-yl]-1-methyl-1H-pyrazole-4-carboxamide] | > 1000 nM | < 100 nM | < 100 nM | < 10 nM
20 | COCCn1cc(C(=O)Nc2nc3c(-c4cnn(C)c4)ccc(OC)c3[nH]2)cn1 [compound 161, N-[7-methoxy-4-(1-methyl-1H-pyrazol-4-yl)-1H-1,3-benzodiazol-2-yl]-1-(2-methoxyethyl)-1H-pyrazole-4-carboxamide] | > 1000 nM | < 1000 nM | < 1000 nM | < 10 nM
